Laboratory results taken from patent US20040072139A1, “Photodynamic treatment and uv-b-irradiation of a thrombocyte suspension” (priority 2000, published 2004).

What was measured:
[1] = system: T-lymphocytes; experiment: Inactivation of T lymphocytes in PC, ConA-stimulated BRDU proliferation assay; type: cell-based; details: for Absorption OD450 nm (BRDU incorporation rate): ConA activation, three days cultivation
[2] = system: VSV; type: cell-based, vesicular stomatitis virus
[3] = system: CSFV; type: cell-based, classical swine fever virus
[4] = system: SHV-1; type: cell-based, suid herpesvirus 1
[5] = system: platelets; experiment: Hypotonic shock reaction (HSR) of treated platelet suspensions
[6] = system: SV-40; type: cell-based, simian virus-40
[7] = system: SFV; type: cell-based, Semliki Forest virus
[8] = system: HIV-1; type: cell-based, human immunodeficiency virus, Type 1
[9] = system: platelets; experiment: Collagen-induced aggregation of treated platelet suspensions
[10] = system: BVDV; type: cell-based, bovine viral diarrhoea virus
[11] = Experiment 1, Day 1 after treatment, thionine/light + UV-B 2.4 J/cm^2
[12] = Experiment 1, Day 1 after treatment, thionine/light alone
[13] = Experiment 1, Day 3 after treatment, thionine/light + UV-B 2.4 J/cm^2
[14] = Experiment 1, Day 3 after treatment, thionine/light alone
[15] = Experiment 2, Day 1 after treatment, thionine/light + UV-B 2.4 J/cm^2
[16] = Experiment 2, Day 1 after treatment, thionine/light alone
[17] = Experiment 2, Day 3 after treatment, thionine/light + UV-B 2.4 J/cm^2
[18] = Experiment 2, Day 3 after treatment, thionine/light alone
[19] = Experiment 3, Day 1 after treatment, thionine/light + UV-B 2.4 J/cm^2
[20] = Experiment 3, Day 1 after treatment, thionine/light alone
[21] = Experiment 3, Day 3 after treatment, thionine/light + UV-B 2.4 J/cm^2
[22] = Experiment 3, Day 3 after treatment, thionine/light alone
[23] = combined treatment with thionine/light and UV-B compared with photodynamic treatment alone

SMILES: Cl.N=c1ccc2nc3ccc(N)cc3sc-2c1 [Thionine/light, Thionine]
- UV-B irradiation time required for complete inactivation of the cells ([1]; PC additionally treated with thionine/light (2 μM, 30 min), at least 4 min with UV-B alone): approximately 3 min
- Absorption OD450 nm (BRDU incorporation rate) ([1]; Th/light (2 μM, 30 min) then UV-B 0.6 J/cm^2): 1.020
- Absorption OD450 nm (BRDU incorporation rate) ([1]; Th/light (2 μM, 30 min) then UV-B 0.9 J/cm^2): 0.387
- Absorption OD450 nm (BRDU incorporation rate) ([1]; Th/light (2 μM, 30 min) then UV-B 1.2 J/cm^2): 0.240
- Influence on the proliferation of the cells (in words) ([1]; thionine/light alone (2 μM, 30 min)): no influence
- Infectivity (in words) [2]: still not completely eliminated
- Reduction of virus titre [2]: 4.4 log10TCID50
- Inactivation of virus (in words) [3]: completely inactivated
- Reduction of virus titre [3]: ≧5.5 log10TCID50
- Reduction of virus titre [4]: ≧3.6 log10TCID50
- HSR [5, 11]: 47.86%
- HSR [5, 12]: 65.49%
- HSR [5, 13]: 51.16%
- HSR [5, 14]: 49.16%
- HSR [5, 15]: 42.37%
- HSR [5, 16]: 56.24%
- HSR [5, 17]: 30.26%
- HSR [5, 18]: 52.61%
- HSR [5, 19]: 54.45%
- HSR [5, 20]: 69.30%
- HSR [5, 21]: 48.31%
- HSR [5, 22]: 55.49%
- Influence on HSR (in words) [5, 23]: neither the HSR (hypotonic shock reaction) nor the collagen-induced aggregation of platelet concentrates is substantially more strongly influenced
- Infectivity (in words) [6]: still not completely eliminated
- Reduction of virus titre [6]: 3.9 log10TCID50
- Inactivation of virus (in words) [7]: completely inactivated
- Reduction of virus titre [7]: ≧5.2 log10TCID50
- Reduction of virus titre [8]: ≧5.7 log10TCID50
- collagen-induced aggregation [9, 11]: 69.75%
- collagen-induced aggregation [9, 12]: 73.25%
- collagen-induced aggregation [9, 13]: 16.75%
- collagen-induced aggregation [9, 14]: 13.75%
- collagen-induced aggregation [9, 15]: 76.67%
- collagen-induced aggregation [9, 16]: 84.67%
- collagen-induced aggregation [9, 17]: 53.50%
- collagen-induced aggregation [9, 18]: 27.67%
- collagen-induced aggregation [9, 19]: 58.33%
- collagen-induced aggregation [9, 20]: 69.67%
- collagen-induced aggregation [9, 21]: 30.33%
- collagen-induced aggregation [9, 22]: 15.67%
- Influence on collagen-induced aggregation (in words) [9, 23]: neither the HSR (hypotonic shock reaction) nor the collagen-induced aggregation of platelet concentrates is substantially more strongly influenced
- Inactivation of virus (in words) [10]: completely inactivated
- Reduction of virus titre [10]: ≧4.9 log10TCID50
